Columns and labels:
Format in all cases: cell-based
[1] = system: human mesenchymal stem cells; test: Introduction of GFP mRNA with NFκB inhibitors other than nuclear translocation inhibitors (Example 12), yield of GFP-positive cells; conditions: JSH-23 1 μM; GFP mRNA 10 pg/cell
Method: Improvement in the yield of transgenic cells when using an NFκB inhibitor other than the NFκB nuclear translocation inhibitor of the present invention was investigated. As the NFκB inhibitors, BAY11 (IKK inhibitor), dexamethasone (IκB degradation inhibitor), and 6-amino-4-(4-phenoxyphenethylamino)quinazoline (p65 acetylation inhibitor) were used to perform introduction of genes. For comparison, introduction of gene was performed under the same conditions using JSH-23, an NFκB nuclear translocation inhibitor, instead of the above-mentioned NFκB inhibitors. The specific procedure is as follows.
Human mesenchymal stem cells were seeded in a 6-well plate to be about 10,000 cells/cm^2. […]
(§1) Twenty-four hours after the final introduction of genes, the cells were detached with a cell detachment solution, centrifuged at 600×g for 5 minutes using a centrifuge, to collect the cells. The collected cells were counted using a hemocytometer. Furthermore, the GFP-positive percentage of the collected cells was measured using a flow cytometer. The yield of the number of GFP-positive cells was calculated from the number of cells counted and the GFP-positive percentage.

[2] = system: Human leukemia T cells (Jurkat E6.1); test: Introduction of GFP-tagged CAR-T plasmid by lipofection, yield of GFP-positive cells; conditions: JSH-23 0.1 μM; GFP-tagged CAR-T plasmid 1 pg/cell
Method: Human leukemia T cells (Jurkat E6.1) were seeded in a 6-well plate to be about 10,000 cells/cm^2. As a culture solution, RPMI1640 medium comprising 10% bovine serum was used. To this, 0.1 μM of JSH-23 was added, or for comparison, 0.1% (v/v) DMSO instead of JSH-23 was added and used.
A lipofection solution was prepared by adding Lipofectamine 2000 and GFP-tagged CAR-T plasmid to OptiMEM. The amount of CAR-T plasmid was prepared to be 1 pg/cell. The prepared lipofection solution was mixed well according to the manufacturer's recommended protocol and allowed to stand at room temperature for about 15 minutes.
Next, the lipofection solution was added to the plate seeded with human leukemia T cells, and cultured in a CO2 incubator at 37° C. for about 1 day (18 hours). […]
as §1, with “collected and” for “detached with a cell detachment solution,”, “800 rpm” for “600×g”

[3] = system: human mesenchymal stem cells; test: Introduction of increased amount of GFP mRNA (20 pg/cell), yield of GFP-positive cells; conditions: JSH-23 1 μM, versus 20 pg/cell without JSH-23
Method: Human mesenchymal stem cells were seeded in a 6-well plate to be about 10,000 cells/cm^2. As a culture solution, αMEM (+10% serum) supplemented with 1 μM of JSH-23 or αMEM (+10% serum) supplemented with 0.1% (v/v) DMSO instead of JSH-23 was used.
A lipofection solution was prepared by adding Lipofectamine RNAiMAX and fluorescent protein GFP mRNA to OptiMEM. It was prepared so that the amount of mRNA was 10 pg/cell or 20 pg/cell. The prepared lipofection solution was mixed well according to the manufacturer's recommended protocol and allowed to stand at room temperature for about 15 minutes.
Next, a lipofection solution prepared so that the amount of mRNA was 20 pg/cell was added to a plate that used, as a culture solution, αMEM (+10% serum) supplemented with DMSO or JSH-23, respectively. […]
as §1

Cc1ccc(NCCCc2ccccc2)c(N)c1 [JSH-23]
number of GFP-positive (transgenic) cells relative to control (set to 1) [1]: ≥ 7 times
number of GFP-positive cells compared to the control (control set to 1) [2]: ≥ 2 times
number of GFP-positive cells [3]: increased

Reference: patent publication US20250327032A1, “AGENT FOR AVOIDING IMMUNE RESPONSE OF TRANSGENIC CELLS” (HYPERION DRUG DISCOVERY CO., LTD., priority 2021, published 2025)
